# Measured values taken from patent publication US4876359A, “Novel gamma-butyrolactone derivatives” (SS Pharmaceutical Co., Ltd., priority 1986, dated 1989).
# Target: T1, Angiotensin Converting Enzyme (ACE) (Oryctolagus cuniculus, UniProt P12822)
# T1 construct: Lyophilized powder (1 g) of rabbit lungs (product of Pel-Freez Biologicals Company) was extracted; tissue Pel-Freez Biologicals Company; host or cells: rabbit lungs, lyophilized powder; 40,000 g supernatant of a phosphate buffer extract
# T1 sequence (P12822 34-1310): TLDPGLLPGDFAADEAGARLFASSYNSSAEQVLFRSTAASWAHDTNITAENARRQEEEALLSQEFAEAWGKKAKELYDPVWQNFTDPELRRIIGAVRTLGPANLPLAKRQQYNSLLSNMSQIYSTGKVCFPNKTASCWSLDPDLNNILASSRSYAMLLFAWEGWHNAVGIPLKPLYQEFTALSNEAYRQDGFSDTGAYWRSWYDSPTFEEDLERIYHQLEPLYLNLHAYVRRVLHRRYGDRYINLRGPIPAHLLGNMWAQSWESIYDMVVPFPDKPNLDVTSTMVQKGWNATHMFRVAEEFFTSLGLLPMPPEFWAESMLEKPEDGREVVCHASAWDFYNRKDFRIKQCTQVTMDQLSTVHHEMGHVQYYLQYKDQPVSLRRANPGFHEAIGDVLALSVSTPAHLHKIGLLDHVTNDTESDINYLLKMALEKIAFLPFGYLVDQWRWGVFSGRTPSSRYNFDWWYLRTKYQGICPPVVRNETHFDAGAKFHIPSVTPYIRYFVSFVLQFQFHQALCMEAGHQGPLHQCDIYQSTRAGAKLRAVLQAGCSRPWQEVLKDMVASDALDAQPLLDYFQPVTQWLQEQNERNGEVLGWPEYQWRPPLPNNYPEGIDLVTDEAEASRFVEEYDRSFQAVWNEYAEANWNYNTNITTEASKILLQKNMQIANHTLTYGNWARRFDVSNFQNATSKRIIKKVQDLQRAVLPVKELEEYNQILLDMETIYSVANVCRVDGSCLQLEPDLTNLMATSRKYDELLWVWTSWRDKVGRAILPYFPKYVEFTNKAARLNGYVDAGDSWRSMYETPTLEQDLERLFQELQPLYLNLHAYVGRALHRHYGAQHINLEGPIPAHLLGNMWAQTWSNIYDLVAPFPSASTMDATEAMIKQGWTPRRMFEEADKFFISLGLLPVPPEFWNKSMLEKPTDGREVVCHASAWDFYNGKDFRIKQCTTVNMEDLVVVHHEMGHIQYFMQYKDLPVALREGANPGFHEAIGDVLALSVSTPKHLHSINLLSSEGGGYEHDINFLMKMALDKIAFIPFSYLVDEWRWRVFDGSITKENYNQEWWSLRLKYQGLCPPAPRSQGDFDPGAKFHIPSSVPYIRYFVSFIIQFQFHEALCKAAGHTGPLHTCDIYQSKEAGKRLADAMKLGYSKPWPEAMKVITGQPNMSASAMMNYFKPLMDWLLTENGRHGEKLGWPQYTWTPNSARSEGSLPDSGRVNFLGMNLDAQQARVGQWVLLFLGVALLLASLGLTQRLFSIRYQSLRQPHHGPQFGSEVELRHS
# Test: ACE inhibitory activity after incubation in rat plasma (Method 2)
# Format: biochemical, rabbit
# Conditions: pre-incubated in rat plasma at 37° C. for 1 hour, dihydrochlorides, read-out: ACE inhibitory activity concentration (IC50)
# Experimental: (§1) The ACE inhibitory activities of the certain compounds (I) of this invention were determined by measuring their ACE activities in accordance with the method reported by Neels et al. [Clinical Chemistry, 29, 1399 (1983)].
# (§2) Lyophilized powder (1 g) of rabbit lungs (product of Pel-Freez Biologicals Company) was extracted with 10 ml of a 50 mM buffer of potassium phosphate (pH 8.3) and a centrifugation supernatant (40,000 g×40 minutes) was used as an enzyme solution. Each test compound was dissolved at a concentration of 1 mg/ml in water, methanol or dimethyl sulfoxide depending on its solubility, followed by dilution with water to provide test solutions.
# (§3) Added to 10 μl of each of the test solutions of various concentrations was 100 μl of a mixed reactant (pH 8.3) containing 50 mM of N-2-hydroxyethylpiperazine-N'-2-ethanesulfonic acid (HEPES), 300 mM of NaCl, 400 mM of Na2 SO4 and 30 mM of hippurylglycylglycine, followed by an addition of 10 μl of the enzyme solution to conduct a reaction at 37° C. for 30 minutes. To the reaction mixture, 100 μl of a sodium tungstate solution (100 g/l) and 100 μl of 0.33M sulfuric acid were added to terminate the reaction, followed by a further addition of 1 ml of water. The resultant mixture was centrifuged to collect 750 μl of a supernatant, to which 1 ml of a 100 mM borate buffer (pH 9.6) was added. Added further was 50 μl of a 60 mM solution of sodium 2,4,6-tri-nitrobenzenesulfonate. After warming the mixture at 37° C. for 15 minutes, its absorbance was measured at 420 nm. The inhibition rates at the various concentrations were calculated and IC50 was then determined by a method known per se in the art.
# Mixed to 1800 μl of rat plasma was 200 μl of each test solution, followed by incubation at 37° C. for 1 hour. The resulting mixture was then diluted with a 0.1M Tris-HCl buffer (pH 8.3). The procedure of Method 1 was thereafter followed to measure the ACE inhibitory activity.
row,IC50 [nM],Compound
1,4.7,"CCCCCCC1CC(N[C@@H](CCCCN)C(=O)N2CCC[C@H]2C(=O)O)C(=O)O1 (single isomer, unassigned) [Compound 35, N^α -(2-oxo-5-hexyl-3-tetrahydrofuranyl)-L-lysyl-L-proline]"
2,5.7,"CCCCC1CC(N[C@@H](CCCCN)C(=O)N2CCC[C@H]2C(=O)O)C(=O)O1 (single isomer, unassigned) [Compound 37, N^α -(2-oxo-5-butyl-3-tetrahydrofuranyl)-L-lysyl-L-proline]"
3,4,"CCCCCC1CC(N[C@@H](CCCCN)C(=O)N2CCC[C@H]2C(=O)O)C(=O)O1 (single isomer, unassigned) [Compound 38, N^α -(2-oxo-5-pentyl-3-tetrahydrofuranyl)-L-lysyl-L-proline]"

# Target: T1, Angiotensin Converting Enzyme (ACE)
# Test: ACE inhibitory activity (Method 1, rabbit lung enzyme, hippurylglycylglycine)
# Format: biochemical
# Conditions: pH 8.3, 37° C., 30 minutes, hydrochlorides, read-out: ACE inhibitory activity concentration (IC50)
# Experimental: as §1, §2, §3
row,IC50 [nM],Compound
1,7,"CCCCCCC1CC(N[C@@H](C)C(=O)N2CCC[C@H]2C(=O)O)C(=O)O1 (single isomer, unassigned) [Compound 14, N-(2-oxo-5-hexyl-3-tetrahydrofuranyl)-L-alanyl-L-proline]"
2,2.9,"CCCCCCCCC1CC(N[C@@H](C)C(=O)N2CCC[C@H]2C(=O)O)C(=O)O1 (single isomer, unassigned) [Compound 21, N-(2-oxo-5-octyl-3-tetrahydrofuranyl)-L-alanyl-L-proline]"
3,3,"CCCCCCCCCCC1CC(N[C@@H](C)C(=O)N2CCC[C@H]2C(=O)O)C(=O)O1 (single isomer, unassigned) [Compound 22, N-(2-oxo-5-decanyl-3-tetrahydrofuranyl)-L-alanyl-L-proline]"
4,14,"C[C@H](N[C@H]1CC(c2ccccc2)OC1=O)C(=O)N1CCC[C@H]1C(=O)O (stereo partly drawn) [Comparative compound, reference compound]"
5,5.8,"CCCCCCCC1CC(N[C@@H](C)C(=O)N2CCC[C@H]2C(=O)O)C(=O)O1 (single isomer, unassigned) [Compound 20, N-(2-oxo-5-heptyl-3-tetrahydrofuranyl)-L-alanyl-L-proline]"
6,7.3,"CCCCCC1CC(N[C@@H](C)C(=O)N2CCC[C@H]2C(=O)O)C(=O)O1 (single isomer, unassigned) [Compound 19, N-(2-oxo-5-pentyl-3-tetrahydrofuranyl)-L-alanyl-L-proline]"
